Assay results published in patent publication US7560458B2, “Triazolopyrimidine derivatives as glycogen synthase kinase 3 inhibitors” (Janssen Pharmaceutica, N.V., priority 2003, dated 2009).

Experiments:
[1] = biological target: GSK3β (Homo sapiens, UniProt P49841); assay: GSK3beta assay (SPA, biotinylated phosphorylated CREB peptide, ATP-P33); type: biochemical; details: −log IC50 (M); given as ranges (>8; 7-8; <7); read-out: pIC50 (GSK3beta) (converted)
Protocol: (§1) GSK3beta assays were performed at room temperature in a 100 μl reaction volume of 25 mM Tris (ph 7.4) containing 10 mM MgCl2.6H2O 1 mM DTT, 0.1 mg/ml BSA, 5% glyceol and containing 5.7 ng/μl GSK3β, 5 μM biotinylated phosphorylated CREB peptide, 1 μM APT, 0.85 μCi/ml ATP-P^33 and a suitable amount of a test compound of formula (I). After one hour, the reaction was terminated by adding 70 μl of Stop mix (0.1 mM APT, 5 mg/ml streptavidin coated PVT SPA bead pH 11.0). The beads to which the phosphorylated CREB peptide is attached were allowed to settle overnight and the radioactivity of the beads was counted in a microtiterplate scintillation counter and compared with the results obtained in a control experiment (without the presence of a test compound) in order to determine the percentage of GSK3β inhibition. The IC50 value, i.e. the concentration (M) of the test compound at which 50% of GSK3β is inhibited, was calculated from the dose response curve obtained by performing the above-described GSKK3β assay in the presence of different amounts of the test compound.

[2] = biological target: GSK3alpha (Homo sapiens, UniProt P49840); assay: GSK3alpha assay (same as the GSK3beta assay, GSK3alpha 0.25 ng/μl); type: biochemical; details: −log IC50 (M); given as ranges (>8; 7-8; <7); read-out: pIC50 (GSK3alpha) (converted)
Sequence of GSK3alpha (P49840 whole entry, species assumed): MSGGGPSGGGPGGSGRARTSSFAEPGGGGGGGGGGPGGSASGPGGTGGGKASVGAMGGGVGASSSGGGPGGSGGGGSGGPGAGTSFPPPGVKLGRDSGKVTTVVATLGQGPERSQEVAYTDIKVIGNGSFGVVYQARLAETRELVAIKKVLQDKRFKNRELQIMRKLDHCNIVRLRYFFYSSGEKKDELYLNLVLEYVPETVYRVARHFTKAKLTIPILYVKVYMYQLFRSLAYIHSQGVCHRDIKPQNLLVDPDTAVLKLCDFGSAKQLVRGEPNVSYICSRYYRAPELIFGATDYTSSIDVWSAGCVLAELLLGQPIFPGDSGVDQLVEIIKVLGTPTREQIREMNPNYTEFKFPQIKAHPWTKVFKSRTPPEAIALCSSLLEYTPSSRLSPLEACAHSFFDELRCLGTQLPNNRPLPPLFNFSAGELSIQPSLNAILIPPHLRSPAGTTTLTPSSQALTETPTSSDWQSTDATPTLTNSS
Protocol: as §1
The GSK3alpha assay was performed in the same way as described above for the GSK3beta assay except for the concentration of GSK3alpha which is 0.25 ng/μl.

Sequence of GSK3β (P49841 whole entry, species assumed): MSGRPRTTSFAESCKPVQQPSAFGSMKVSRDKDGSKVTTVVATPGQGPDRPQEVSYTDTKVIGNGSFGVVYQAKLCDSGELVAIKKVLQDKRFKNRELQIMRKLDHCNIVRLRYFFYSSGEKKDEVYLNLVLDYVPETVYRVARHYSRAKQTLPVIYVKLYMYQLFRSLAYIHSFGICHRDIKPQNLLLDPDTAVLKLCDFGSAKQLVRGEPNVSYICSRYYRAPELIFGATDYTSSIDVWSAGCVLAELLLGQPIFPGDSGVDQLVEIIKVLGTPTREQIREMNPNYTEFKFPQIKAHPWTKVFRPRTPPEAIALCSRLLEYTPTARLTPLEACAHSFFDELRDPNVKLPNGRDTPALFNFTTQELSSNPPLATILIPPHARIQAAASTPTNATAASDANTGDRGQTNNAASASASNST

IC50 [1] [M] | IC50 [2] [M] | SMILES
1e-08 to 1e-07 | < 1e-08 | CC(C)CC(=O)NCc1cccc(-n2nnc3cnc(Nc4ccc(CC(=O)O)cc4)nc32)c1 [Compound 194]
1e-08 to 1e-07 | < 1e-08 | CC(C)CC(=O)NCc1cccc(-n2nnc3cnc(Nc4ccc(CCO)cc4)nc32)c1 [Compound 195]
< 1e-08 | < 1e-08 | CC(C)CC(=O)NCc1cccc(-n2nnc3cnc(Nc4ccc(S(N)(=O)=O)cc4)nc32)c1 [Compound 197]
1e-08 to 1e-07 | < 1e-08 | O=C(NCCO)c1cccc(Nc2ncc3nnn(-c4cccc(CNC(=O)C5CC5)c4)c3n2)c1 [Compound 200]
< 1e-08 | < 1e-08 | COCc1cccc(Nc2ncc3nnn(-c4cccc(CNC(=O)C5CC5)c4)c3n2)c1 [Compound 201]
< 1e-08 | < 1e-08 | CS(=O)(=O)Nc1cccc(Nc2ncc3nnn(-c4cccc(CNC(=O)C5CC5)c4)c3n2)c1 [Compound 202]
1e-08 to 1e-07 | < 1e-08 | N#Cc1ccc(Nc2ncc3nnn(-c4cccc(CNC(=O)C5CC5)c4)c3n2)cc1 [Compound 203]
< 1e-08 | < 1e-08 | O=C(O)CNC(=O)c1ccc(Nc2ncc3nnn(-c4cccc(CNC(=O)C5CC5)c4)c3n2)cc1 [Compound 205]
< 1e-08 | < 1e-08 | O=C(O)c1ccc(Nc2ncc3nnn(-c4cccc(CNC(=O)C5CC5)c4)c3n2)cc1 [Compound 206]
< 1e-08 | < 1e-08 | O=C(O)Cc1ccc(Nc2ncc3nnn(-c4cccc(CNC(=O)C5CC5)c4)c3n2)cc1 [Compound 207]
< 1e-08 | < 1e-08 | O=C(NCc1cccc(-n2nnc3cnc(Nc4ccc(CCO)cc4)nc32)c1)C1CC1 [Compound 208]
1e-08 to 1e-07 | 1e-08 to 1e-07 | COc1ccc(Nc2ncc3nnn(-c4cccc(CNC(=O)C5CC5)c4)c3n2)cn1 [Compound 209]
< 1e-08 | < 1e-08 | NS(=O)(=O)c1ccc(Nc2ncc3nnn(-c4cccc(CNC(=O)C5CC5)c4)c3n2)cc1 [Compound 210]
< 1e-08 | < 1e-08 | O=C(O)c1ccc(Nc2ncc3nnn(-c4cccc(CNC(=O)C5CC5)c4)c3n2)cc1Cl [Compound 212]
< 1e-08 | < 1e-08 | CCOC(=O)NCc1cccc(-n2nnc3cnc(Nc4cccc(C#N)c4)nc32)c1 [Compound 214]
< 1e-08 | < 1e-08 | CCOC(=O)NCc1cccc(-n2nnc3cnc(Nc4cccc(COC)c4)nc32)c1 [Compound 216]
< 1e-08 | < 1e-08 | CCOC(=O)NCc1cccc(-n2nnc3cnc(Nc4cccc(NS(C)(=O)=O)c4)nc32)c1 [Compound 217]
< 1e-08 | < 1e-08 | CCOC(=O)NCc1cccc(-n2nnc3cnc(Nc4ccc(C(N)=O)cc4)nc32)c1 [Compound 218]
< 1e-08 | < 1e-08 | CCOC(=O)NCc1cccc(-n2nnc3cnc(Nc4ccc(CC(=O)O)cc4)nc32)c1 [Compound 219]
< 1e-08 | < 1e-08 | CCOC(=O)NCc1cccc(-n2nnc3cnc(Nc4ccc(CCO)cc4)nc32)c1 [Compound 220]
< 1e-08 | < 1e-08 | CCOC(=O)NCc1cccc(-n2nnc3cnc(Nc4ccc(OC)nc4)nc32)c1 [Compound 221]
< 1e-08 | < 1e-08 | CCOC(=O)NCc1cccc(-n2nnc3cnc(Nc4cccc([S+](C)[O-])c4)nc32)c1 (stereo not drawn) [Compound 223]
1e-08 to 1e-07 | < 1e-08 | NS(=O)(=O)c1ccc(Nc2ncc3nnn(-c4cccc(C(=O)NCCO)c4)c3n2)cc1 [Compound 227]
< 1e-08 | < 1e-08 | NC(=O)c1cccc(-n2nnc3cnc(Nc4ccc(C(=O)O)cc4)nc32)c1 [Compound 228]
< 1e-08 | < 1e-08 | N#Cc1ccc(Nc2ncc3nnn(-c4cccc(C(=O)NCCO)c4)c3n2)cc1 [Compound 229]
1e-08 to 1e-07 | < 1e-08 | CS(=O)(=O)Nc1cccc(Nc2ncc3nnn(-c4cccc(CNC(=O)C56CC7CC(CC(C7)C5)C6)c4)c3n2)c1 [Compound 235]
1e-08 to 1e-07 | 1e-08 | NC(=O)c1ccc(Nc2ncc3nnn(-c4cccc(CNC(=O)C56CC7CC(CC(C7)C5)C6)c4)c3n2)cc1 [Compound 237]
< 1e-08 | < 1e-08 | O=C(O)CNC(=O)c1ccc(Nc2ncc3nnn(-c4cccc(CNC(=O)C56CC7CC(CC(C7)C5)C6)c4)c3n2)cc1 [Compound 238]

More lines, now with the values behind:

SMILES | IC50 [1] [M] | IC50 [2] [M]
COCC(=O)NCc1cccc(-n2nnc3cnc(Nc4cccc(NS(C)(=O)=O)c4)nc32)c1 [Compound 158] | < 1e-08 | < 1e-08
NS(=O)(=O)c1ccc(Nc2ncc3nnn(-c4cccc(CC(=O)O)c4)c3n2)cc1 [Compound 160] | 1e-08 to 1e-07 | 1e-08 to 1e-07
CC(=O)NCc1cccc(Nc2ncc3nnn(-c4cccc(CCO)c4)c3n2)c1 [Compound 167] | < 1e-08 | < 1e-08
COCc1cccc(Nc2ncc3nnn(-c4cccc(CCO)c4)c3n2)c1 [Compound 168] | < 1e-08 | < 1e-08
NS(=O)(=O)c1ccc(Nc2ncc3nnn(-c4cccc(CCO)c4)c3n2)cc1 [Compound 169] | < 1e-08 | < 1e-08
COc1cc(Nc2ncc3nnn(-c4cccc(CCO)c4)c3n2)ccc1F [Compound 171] | < 1e-08 | < 1e-08
OCCc1cccc(Nc2ncc3nnn(-c4cccc(CCO)c4)c3n2)c1 [Compound 172] | < 1e-08 | < 1e-08
COc1ccc(Nc2ncc3nnn(-c4cccc(CCO)c4)c3n2)cn1 [Compound 173] | < 1e-08 | < 1e-08
COCC(=O)NCc1cccc(-n2nnc3cnc(Nc4ccc(S(N)(=O)=O)cc4)nc32)c1 [Compound 174] | < 1e-08 | < 1e-08
COCC(=O)NCc1cccc(-n2nnc3cnc(Nc4cccc(C#N)c4)nc32)c1 [Compound 175] | < 1e-08 | < 1e-08
NC(=O)CNC(=O)c1cccc(Nc2ncc3nnn(-c4cccc(CC(=O)O)c4)c3n2)c1 [Compound 176] | 1e-08 to 1e-07 | 1e-08 to 1e-07
CS(=O)(=O)Nc1cccc(Nc2ncc3nnn(-c4cccc(CC(=O)O)c4)c3n2)c1 [Compound 180] | 1e-08 to 1e-07 | 1e-08 to 1e-07
CC(C)CC(=O)NCc1cccc(-n2nnc3cnc(Nc4cccc(C#N)c4)nc32)c1 [Compound 185] | < 1e-08 | < 1e-08
CC(C)CC(=O)NCc1cccc(-n2nnc3cnc(Nc4cccc(C(=O)NCCO)c4)nc32)c1 [Compound 186] | 1e-08 to 1e-07 | < 1e-08
COCc1cccc(Nc2ncc3nnn(-c4cccc(CNC(=O)CC(C)C)c4)c3n2)c1 [Compound 188] | < 1e-08 | < 1e-08
CC(C)CC(=O)NCc1cccc(-n2nnc3cnc(Nc4cccc(NS(C)(=O)=O)c4)nc32)c1 [Compound 189] | < 1e-08 | < 1e-08
CC(C)CC(=O)NCc1cccc(-n2nnc3cnc(Nc4ccc(C#N)cc4)nc32)c1 [Compound 190] | 1e-08 | < 1e-08
CC(C)CC(=O)NCc1cccc(-n2nnc3cnc(Nc4ccc(C(N)=O)cc4)nc32)c1 [Compound 191] | < 1e-08 | < 1e-08
CC(C)CC(=O)NCc1cccc(-n2nnc3cnc(Nc4ccc(C(=O)NCC(=O)O)cc4)nc32)c1 [Compound 192] | < 1e-08 | < 1e-08
CC(C)CC(=O)NCc1cccc(-n2nnc3cnc(Nc4ccc(C(=O)O)cc4)nc32)c1 [Compound 193] | 1e-08 to 1e-07 | 1e-08 to 1e-07
